# Experimental data reported in a melting point compilation (Tetko et al.; mined from patent text by program, amines drawn as free bases though some values may be those of a salt).
row,SMILES,melting point [°C]
1,COC(=O)C1Sc2cc(OCc3ccccc3)ccc2OCC1=O (configuration not stated),101 to 102
2,COc1ccc(C(=S)Nc2ccccc2OC)cc1,84.5 to 86.5
3,COC(=O)c1cc(NC(C)=O)c([N+](=O)[O-])cc1C(=O)OC,119 to 120
4,O=C(O)CCCC/C=C(/c1ccc(-c2nc(C(=O)NCCCCC3CCCCC3)co2)cc1)c1cccnc1,52 to 56
5,CCOC(=O)C(C#N)=Cc1cc(OC)c(OC)c2c1C=CCO2,104 to 108
6,COc1cc(CC(N)=O)cc(OC(F)F)c1OC,104 to 105
7,COc1cc(OCCCCN2CCCN(CCCCOc3cc(OC)c(OC)c(OC)c3)CC2)cc(OC)c1OC,124 to 126
8,CN1COCNC1=N[N+](=O)[O-],137 to 139
9,NC(=O)C(=O)NCCc1ccc(OCc2ccccc2)c(OCc2ccccc2)c1,187
10,CC(C)NCC(=O)N1c2ccccc2N(C)S(=O)(=O)c2ccccc21,115 to 117
11,CC1SC(=O)NN=C1c1ccc2c(c1)C1(CCCS1)C(=O)N2 (configuration not stated),205
12,Cc1oc(-c2cccs2)nc1CCOc1ccc(N)cn1,120 to 122
13,CCOc1ccc(F)cc1C(=O)c1sc2nc(C)c(C)cc2c1N,170
14,Oc1ccc(F)c2c1C[C@@H](N(C1CCC1)C1CCC1)CO2,170 to 172
15,Cc1ccc(CC2CCN(C(=O)C(=O)Nc3ccc4c(c3)CS(=O)(=O)N4)CC2)cc1,186
16,O=Cc1cc(C(F)(F)F)ccc1Sc1ccccc1F,130 to 132
17,CCCCCCC(=NO)C(=O)c1ccc(OC)c2ccccc12,92 to 93
18,O=C(Cl)c1c(Cl)cc([N+](=O)[O-])cc1Cl,63 to 65
19,CN(N=[N+](C)[O-])c1ccccc1,55 to 56
20,Cn1c(=O)c(NC(=O)Nc2ccc(F)cc2F)c(-c2ccccc2)c2cc(Cl)ccc21,204 to 206
21,Cc1nc(-c2ccc(-c3ccco3)cc2)c(-c2ccc(S(C)(=O)=O)cc2)o1,143 to 144
22,Cc1cc2c(c(C)c1NC(=O)CC(C)(C)C)CC(C)(C)O2,181 to 182
23,O=C(NCc1ccc(OCCN2CCCC2)cc1)c1ccc2c(c1)OCO2,93.5 to 94.5
24,CCCn1c(=O)c2[nH]c(C(CO)Cc3ccccc3)nc2n(CCC)c1=O (configuration not stated),145 to 146
25,O=c1[nH]nc(CCCN2CCN(c3cccc(Cl)c3)CC2)n1CCOc1ccccc1,150 to 153
26,CN(C)c1ccc(C2(CNC(=O)Nc3ccccc3CCc3cc(C(C)(C)C)c(O)c(C(C)(C)C)c3)CCCC2)cc1,174 to 175

row,SMILES,melting point [°C]
1,CCOC(=O)c1ccc(C=C(C)c2ccc3c(c2)SCCC3(C)C)cc1,64 to 65
2,O=C1c2ccccc2C(=O)N1Cc1cc([N+](=O)[O-])cc([N+](=O)[O-])c1,171
3,CCOP(=O)(OCC)C1CCNc2ccc(C(F)(F)F)cc21 (configuration not stated),94
4,CC(=O)COc1ccc([N+](=O)[O-])cc1,77 to 78
5,CCCOc1c(OCc2ccccc2)cc([C@H]2CC[C@H](c3cc(OC)c(OC)c(OC)c3)O2)cc1S(=O)(=O)CCO (relative stereo),112 to 113
6,CC(C)c1csc(/C=C/c2cccc(NC(=O)Cc3cccc(CC(=O)O)c3)c2)n1,122 to 124
7,CC(C)c1cccc2c1C(=O)N(COC(=O)c1c(Cl)ccc(OCC(=O)O)c1Cl)S2(=O)=O,210 to 212
8,CC(=O)N(CCCn1cncn1)C1=Nc2cccc3cccc1c23,128 to 129
9,CSc1nc(CC2CCN(c3ccc(C(C)(C)C)cc3)CC2)nc(C(=O)NCC(=O)O)c1O,135 to 136
10,CCOc1ccc(C)cc1NC(=O)Nc1ccc(N2CCN(C(=O)OC(C)(C)C)CC2)cc1,105 to 107
11,CC(=O)c1cccc(NC(=O)NC2N=C(c3ccccc3F)c3cccc(C)c3N(CC(=O)N3CC4CCC(CC4)C3)C2=O)c1 (configuration not stated),> 250
12,Cc1cc(F)ccc1-c1nc(NCCO)nc2c1CCC(=O)N2c1ccccc1F,120 to 124
13,CCOC(=O)c1cnc2c(c(C)nc3ccnn32)c1O,190 to 192
14,O=C(O)COc1ccc(C(=O)c2ccc([N+](=O)[O-])cc2)c(Cl)c1Cl,172 to 175
15,COc1ccc(-c2cnc3ncnn3c2NC2CCCC2)cc1,127
16,O=C(NC(NC(=S)Nc1ccccc1F)C(F)(F)F)c1ccc(Cl)cc1 (configuration not stated),197 to 200
17,CCN(CC)CCNc1nc2cccnc2n(-c2ccc(C)cc2)c1=O,131 to 132
18,COc1ccc(-c2cn(C)cc(-c3ccc(OC)c(OC)c3)c2=O)cc1OC,182 to 184
19,CNC(=O)NN(CC(=O)OC)c1cccc(I)c1,150
20,Cc1ccc(S(=O)(=O)c2ccc(Cl)c(NC(=O)N[C@@H](Cc3ccc(NC(=O)c4c(Cl)cccc4Cl)cc3)C(=O)O)c2)cc1,241
21,CCOc1ccc(C2=NN(C3CCN(C(=O)NC(C)(C)C)CC3)C(=O)[C@@H]3CC=CC[C@H]23)cc1OCC,145 to 148
22,COc1cc(OC)nc(Sc2c([N+](=O)[O-])nc(C)n2C)n1,228 to 230
23,COc1cc(OC)c2c(=O)c3c(Cl)ccc([N+](=O)[O-])c3[nH]c2c1,291 to 294
24,O=C(NC1CC1)C(O)=CC(=O)c1ccc(Cc2ccc(F)cc2)o1,116 to 117
25,CC(C)OC(=O)c1cc(-n2c(=O)[nH]cc(C#N)c2=O)c(F)cc1Cl,143 to 145
26,CC(C)(C=C(Br)Br)C(=O)Nc1ccc(Cl)cc1,104

row,SMILES,melting point [°C]
1,COc1ccc2c(=O)c(-c3ccccc3)coc2c1,156 to 158
2,CC12CCC3C(CCC4CC(O)CCC43C)C1CCC2=S (configuration not stated),172 to 173
3,CC(O)Cn1c(CO)nc(C(C)C)c1Sc1cc(Cl)cc(Cl)c1 (configuration not stated),159 to 161
4,CN(C)S(=O)(=O)c1c(S(N)(=O)=O)ccn1C,146 to 148
5,NC(=O)N(O)CC1CCC1,112 to 113
6,CCn1ncc2c(NCc3ccc(OCCN4CCOCC4)cc3)c3ccccc3nc21,170 to 172
7,O=C(Nc1ccc(Br)cc1)c1ccccc1NCc1ccncc1,136 to 137
8,NC(=O)Cc1nn(-c2ccccn2)c2[nH]c3ccccc3c(=O)c12,302 to 305
9,COC(=O)c1c(C(N)=O)[nH]c(-c2ccccc2)c1N,177 to 179
10,COC(=O)CN(C)C(=S)c1cccc2c(Br)cccc12,85 to 86
11,OCCc1ccc(COc2cccc(-c3c(-c4ccccc4)cnc4c(C(F)(F)F)cccc34)c2)cc1,50
12,CNc1nc(-c2cncc(C#Cc3cccnc3)c2)c2cc(OC)c(OC)cc2n1,208 to 211
13,CNC(=O)C(C)(C)N=NC(C)(C)C(=O)NC,153
14,COc1ccc(CS[C@@H]2C[C@@H](C(=O)N(C)OC)N(S(=O)(=O)c3ccc4ccccc4c3)C2)cc1,101 to 102
15,CCCCCCCCCCCCCCCCOCC(CO)COC(c1ccccc1)(c1ccccc1)c1ccccc1 (configuration not stated),38
16,O=C(O)C1CC(C(=O)O)C(C(=O)O)C1C(=O)O (configuration not stated),186
17,O=C(c1ccccc1)c1ccc(N2CCC(N3Cc4ccccc4C3=O)CC2)cc1,173 to 175
18,CCCc1c(-c2cccnn2)ssc1=S,77
19,CCCc1ccc(-c2ccc(-c3ccc(O)cc3)nn2)cc1,220 to 223
20,COC(=O)CCn1c(=O)n(CCN2CCN(c3ccc(OC)cc3)CC2)c(=O)c2cscc21,151 to 152
21,CSc1cc(SC)c(N)c(SC)c1N,114 to 116
22,CCCCOC(=O)NCCc1nc(-c2ccc(-c3ccccc3)cc2)c[nH]1,137
23,CCOC(=O)c1nccc(N)n1,101 to 104
24,CC=Cn1c(C)c(C)c2cnnc(NCc3ccccc3)c21,130 to 131
25,O=C(O)c1cn2c3c(cccc3c1=O)C1CCCCC12 (configuration not stated),238 to 241
26,COC(=O)C(=O)c1ccc(OCCOc2ccc(OC)c(OC)c2)cc1,93 to 94

row,SMILES,melting point [°C]
1,CC(C)NC1=NS(=O)(=O)c2cc(C(F)(F)F)ccc2N1,287 to 289
2,CCSc1ccc(Cl)nc1C#N,79 to 81
3,Cc1cc(-c2ccccc2)nn1C(C)(C)C(=O)N(C)C,123 to 125
4,O=C(N[C@H]1CCC(=O)N2CCC[C@@H](C(=O)O)N2C1=O)OCC1c2ccccc2-c2ccccc21,120 to 126
5,Nc1ncc(-c2ccc(F)cc2)cc1[N+](=O)[O-],232
6,CC(=O)OCc1ccc2oc(=O)c(C(=O)Oc3cc(Cl)ccc3Cl)cc2c1,168 to 171
7,COC(=O)c1cc(Cl)c(N)c(Cl)c1,72 to 74
8,NC(=O)Oc1ccccc1-c1nc2ccc(OCc3c(F)cccc3Cl)cc2s1,227
9,CCOC(=O)N1CCN(c2ccc(C3=NNC(=O)CC3C)cc2N)CC1 (configuration not stated),193 to 195
10,C[C@H]1Oc2ccc(Br)cc2C(=O)N2CCCC[C@@H]12 (racemic),105 to 106
11,CN1CCC[C@H]1c1cnc(Cl)cc1P(C(C)(C)C)C(C)(C)C,125 to 127
12,O=C(c1cccnc1)N1CCN=C1Nc1c(Cl)cccc1Cl,173 to 174
13,CC(C)(/C=C\Cl)C(=O)Nc1ccc(Cl)cc1,127 to 128
14,OC(c1ccccn1)c1cc(F)ccc1F (configuration not stated),65 to 66
15,C=CC=CC(=O)Nc1cc2c(Nc3cccc(Br)c3)ncnc2cn1,210 to 215
16,O=C(NCCCl)Nc1ccc(CCCc2ccccc2OCc2ccccc2)cc1,120 to 121
17,CC(=O)Oc1ccccc1C1CCC(=O)CC1,86 to 87
18,O=C(O)C(CCOc1ccccc1)CCOc1ccccc1,85 to 86
19,COC(C(N)=O)C(=O)O (configuration not stated),128 to 130
20,CCOC(=O)c1ccc(NC(C)c2ccccc2)cc1 (configuration not stated),88
21,Cn1cc(C(=O)NCc2ccc(Cl)cc2)c(=O)c2cc(C(C)(C)CCO)ccc21,135 to 138
22,CC1N=NC2=CN=C(c3ccccc3Cl)c3cc(C(=O)Cl)ccc3N21 (configuration not stated),295 to 297
23,CCCC(Cn1cncn1)(OCC)c1ccc(Cl)cc1Cl (configuration not stated),67
24,N#CNc1ccccc1-c1ccccc1,85 to 87
